From patent EP0494283B1, “1,4-BENZODIOXANE DERIVATIVES, PROCESS FOR THE PREPARATION THEREOF AND PHARMACEUTICAL COMPOSITIONS THEREFROM” (LABORATORIOS MENARINI S.A., priority 1990, dated 1992)
Where a name gives a salt, the structure may show the parent alone. Read-outs that look alike come from different tables or passages of the source.

Legend:
Type in all cases: cell-based
[1] = tested on: PAF-induced platelet aggregation; experiment: Inhibition of PAF-induced platelet aggregation (aggregometry, washed platelets); settings: Oryctolagus cuniculus, rabbit washed platelets, on the maximum aggregation values of the PAF standard curve, read-out: Paf-antagonism IC₅₀
Description: (§1) Platelets are prepared starting from blood samples obtained by means of a carotid cannula from male albino New Zealand rabbits (2-2.5 kg), subjected to anticoagulant treatment with sodium citrate dihydrate (3.2%) 1:10. Blood is centrifuged (150xg, 10 min, 22°C) to separate the platelet-rich plasma fraction (PRP) from erythrocytes. Platelets are separated from plasmatic components by serial washings and centrifugations (Blood, 1986, 62:337), thereafter they are suspended in a physiological buffer at a concentration of 5 x 10⁵/ml. A 400 µl volume of the above mentioned suspension is placed into the cuvette of a multicanal aggregometer (Aggrecoder HU) where it is kept at constant temperature and stirring. After stabilization, platelets are added with 50 µl of physiological buffer containing 100 µM acetylsalicylic acid and apirase 5 mg/ml, in order to block any non PAF-related platelet activation metabolic pathways. Subsequently the platelet suspensions are added with 50 µl of the different solutions to be tested. Changes in light transmission, due to platelet aggregation in the suspension, are recorded and expressed as percent platelet aggregation, according to the procedure by Born and Cross (J. Physiol., 1962, 162:67). Standard curve is performed with PAF within a concentration range of 0.1-1 nM.
Capability to inhibit PAF-induced platelet aggregation is evaluated by means of the aggregometry technique in suspensions of rabbit washed platelets, obtained by means of the same procedure as described in Example 32. For this purpose, the inhibition potency of the products under test, expressed as the corresponding IC₅₀, is evaluated on the maximum aggregation values obtained in PAF standard curve.

HL-60 tumor cells = experiment: Cytotoxic activity, Trypan Blue exclusion; settings: Homo sapiens, read-out: Cytotoxicity EC₅₀
Description: Suspensions of HL-60 Line cells, obtained starting from human promyelocyte leukemia, are incubated in 6-well culture plates for 24 hours at 37°C, at a concentration of 1 x 10⁶ cells/ml, in the presence of the test products, which have previously been dissolved in the culture medium. Cytotoxicity is measured by means of the Trypan Blue exclusion technique (Practical Immunology, pp 29-32, Oxford, England : Blackwell Scientific Publications, 1976).

rabbit washed platelets = experiment: Platelet aggregating effect (aggregometry, washed platelets); settings: Oryctolagus cuniculus, suspension of rabbit washed platelets, acetylsalicylic acid and apirase added, read-out: Aggregation EC₅₀
Description: as §1

[2] = HL-60 cells, 1 x 10⁶ cells/ml, 24 hours at 37°C

SMILES	IC50 [1] [µM]	EC50 (HL-60 tumor cells; HL-60, 24 h) [µM]	EC50 (HL-60 tumor cells; [2]) [µM]	also measured
C[N+]1(CCCCCCCCCCOCC2COc3ccccc3O2)CCCCC1 (centres unmarked) [Example 23, N-[10-[[(1,4-Benzodioxan-2-yl)methyl]oxy]decyl]-N-methylpiperidinium bromide]	75	20	–	–
C[N+](C)(C)CCCCCCCCCCCCCCCCOCC1COc2ccccc2O1 (centres unmarked) [Example 5, N-[16[[(1,4-Benzodioxan-2-yl)methyl]oxy]hexadecyl]-N,N,N-trimethylammonium bromide]	20	18	–	–
C[N+]1(CCCCCCOCCCCCCCCCCOCC2COc3ccccc3O2)CCCCC1 (centres unmarked) [Example 25, N-[6-[[(10-[[1,4-Benzodioxan-2-yl)methyl]oxy]decyl]oxy]hexyl]-N-methylpiperidinium bromide]	–	–	3	–
c1ccc2c(c1)OCC(COCCCCCCCCCCN1CCCCC1)O2 (centres unmarked) [Example 15, N-[10-[[(1,4-Benzodioxan-2-yl)methyl]oxy]decyl]piperidine hydrochloride]	–	–	20	–
C[N+](C)(C)CCCCCCCCCCOCCCCCCCCCCOCC1COc2ccccc2O1 (centres unmarked) [Example 7, N-[10-[[10-[[(1,4-Benzodioxan-2-yl)methyl]oxy]decyl]oxy]decyl]-N,N,N-trimethylammonium bromide]	–	–	15	–
C[N+](C)(C)CCCCCCOCCCCCCCCCCOCC1COc2ccccc2O1 (centres unmarked) [Example 6, N-[6-[[(10-[[1,4-Benzodioxan-2-yl)methyl]oxy]decyl]oxy]hexyl]-N,N,N-trimethylammonium bromide]	–	–	11	–
C[N+]1(CCCCCCCCCCOCCCCCCCCCCOCC2COc3ccccc3O2)CCCCC1 (centres unmarked) [Example 26, N-[10-[[10-[[(1,4-Benzodioxan-2-yl)methyl]oxy]decyl]oxy]decyl]-N-methylpiperidinium bromide]	–	–	28	–
C[N+]1(CCCCCOCC2COc3ccccc3O2)CCCCC1 (centres unmarked) [Example 21, N-[5-[[(1,4-Benzodioxan-2-yl)methyl]oxy]pentyl]-N-methylpiperidinium iodide]	–	–	–	EC50 (rabbit washed platelets): > 190 µM
c1ccc2c(c1)OCC(COCCCCCCCCCCN1CCOCC1)O2 (centres unmarked) [Example 19, N-[10-[[(1,4-Benzodioxan-2-yl)methyl]oxy]decyl]morpholine hydrochloride]	–	–	30	–
CC[N+](CC)(CC)CCCCCCCCCCOCC1COc2ccccc2O1 (centres unmarked) [Example 10, N-[10-[[(1,4-Benzodioxan-2-yl)methyl]oxy]decyl]-N,N,N-triethylammonium bromide]	90	30	–	–
C[N+](C)(C)CCCCCCCCCCOCC1COc2ccccc2O1 (centres unmarked) [Example 4, N-[10-[[(1,4-Benzodioxan-2-yl)methyl]oxy]decyl]-N,N,N-trimethylammonium bromide]	130	70	–	–
C[N+]1(CCCCCCCCCCOCC2COc3ccccc3O2)CCOCC1 (centres unmarked) [Example 30, N-[10-[[(1,4-Benzodioxan-2-yl)methyl]oxy]decyl]-N-methylmorpholinium iodide]	190	30	–	–
c1ccc2c(c1)OCC(COCCCCN1CCOCC1)O2 (centres unmarked) [Example 16, N-[4-[[(1,4-Benzodioxan-2-yl)methyl]oxy]butyl]morpholine hydrochloride]	–	–	18	–
C[N+]1(CCCCCCCCCCCCCCCCOCC2COc3ccccc3O2)CCCCC1 (centres unmarked) [Example 24, N-[16-[[(1,4-Benzodioxan-2-yl)methyl]oxy]hexadecyl]-N-methylpiperidinium bromide]	–	–	6	–
CC[N+](CC)(CC)CCCCOCC1COc2ccccc2O1 (centres unmarked) [Example 8, N-[4-[[(1,4-Benzodioxan-2-yl)methyl]oxy]butyl]-N,N,N-triethylammonium bromide]	–	–	–	EC50 (rabbit washed platelets): > 190 µM
